Where “and” joins values, the source holds several entries; their conditions need not be identical. Identical values can stand only once.
What was measured:
[1] = Volume of distribution of FITC-Elohaes compared with Evans Blue labelled albumin in healthy and endotoxic newborn piglets; conditions: approx 1.0 mg/kg, individual piglets and mean; for Vd: pig, in vivo, iv, 1 mg/kg
Description: Seventeen piglets were used in this study. The animals were randomised into two groups, a healthy (control) group and an Escherichia coli (endotoxic) group. The animals of the endotoxic group received a bolus injection of E. coli (1.667 μg/kg), followed by a continuous infusion of E. coli (1.667 μg/kg/hr) throughout the experiment. The control group received the same dose of isotonic saline injection and infusion. Approximately 30 minutes thereafter, a sample of blood (0.6 ml) was obtained from the femoral vein catheter prior to injection of the plasma marker. A volume between 0.5 ml and 1.0 ml of the indicator was injected {of approximately 1.0 mg/kg for both plasma markers} via the femoral vein catheter into the bloodstream. The catheter was then flushed clean with an equal volume of isotonic saline. […] As before, following the withdrawal of each sample, the catheter was flushed with an equal volume of isotonic saline. Samples were obtained at various time intervals over a 6 hour period, the majority were collected within the first hour after administration of the plasma marker. Blood samples were then centrifuged at approximately 2500 r.p.m for 10-15 minutes and plasma/serum withdrawn.

[2] = Volume of distribution (plasma volume) of FITC-Elohaes compared to Evans Blue labelled albumin in healthy rabbits; conditions: both, rabbit, in vivo, 0.2 mg/ml
Description: All rabbits used were adults of either sex, weighing approximately 3 kg. Both ears of the rabbit were first anaesthetised by topical application of Elma cream about 30 minutes prior to commencement of the procedure. A small cut was made into the left ear vein, using a scalpel, to enable relatively simple blood sampling. A sample of blood (approximately 1.0 ml) was obtained from the cut ear vein and collected into tubes coated with anti-coagulant (EDTA). […] A mixing time of at least 5 minutes was allowed before blood sampling began. Blood samples (≈1.0 ml) were then withdrawn at various time intervals following injection, up to a maximum of 2 days. Most samples were collected within the first 3 hours and no more than 9 post-injection blood samples were taken from each rabbit. The blood samples were then centrifuged {Centaur 2} at 2300 r.p.m. for 10-15 minutes and the plasma withdrawn.
The minimisation procedure was obtained from the NAG library {Numerical Algorithms Group, Oxford; Routine E04FCF:NAGFLIB:1652/0: Mk7: December 1978}. This routine was called by a programme, written by the user and incorporated a subroutine with the appropriate mathematical equation. […]
Thus, the volume of distribution was calculated from the degree of dilution (El-Sayed et al., 1995).

[3] = endotoxic (E. coli) newborn piglets

## Cc1cc(-c2ccc(/N=N/c3ccc4c(S(=O)(=O)O)cc(S(=O)(=O)O)c(N)c4c3O)c(C)c2)ccc1/N=N/c1ccc2c(S(=O)(=O)O)cc(S(=O)(=O)O)c(N)c2c1O [Evans Blue]
[1]; [3]
  VD: 0.1401 L/kg and 0.0917 L/kg and 0.1138 L/kg and 0.1129 L/kg and 0.0783 L/kg
  Vd: 0.0983 L/kg
[1]; healthy newborn piglets
  VD: 0.0851 L/kg and 0.0862 L/kg and 0.0835 L/kg and 0.0869 L/kg
  Vd: 0.0896 L/kg
[2]
  Vd: 0.0531 L/kg
